Marks after values point to notes of the source that are not given here.
How the values were obtained:
[1] = tested on: ob/ob mice; test: Toxicity: hemogram, blood chemistry and organ biopsy in ob/ob mice; format: in vivo; parameters: BUN: unit not given here; conditions: for level of liver enzymes: 8-week treatment; for CBC / fatty liver (major organ biopsy) / tissue histology of major organs (heart, kidney, muscle, spleen, lung, pancreas): 8 weeks; for tissue histology of major organs (heart, kidney, muscle, spleen, lung, pancreas): biopsy; for ALB / ALP / ALT / AST / BUN / CA / CPK / CRE / DBIL / GGT / LDH / TCHO / TG: blood chemistry; for BASO / EOS / MONO / NEU / LYM / WBC / RBC / HGB / HCT / PLT: hemogram; for BASO / EOS: normal range 0.0-0.2; for MONO: normal range 0.0-0.4; for NEU: normal range 0.1-2.4; for LYM: normal range 0.9-9.3; for WBC: normal range 1.8-10.7; for RBC: normal range 6.36-9.42; for HGB: normal range 11.0-15.1; for HCT: normal range 38.5-59.0; for PLT: normal range 592-2972
Experimental: Organs were harvested from ob/ob mice administered with MSL or MSL-7 for 8 weeks and stained with H&E for histological analysis. […] Other than that, no significant changes were observed (Scale Bar. 500 μm). […]
Finally, we studied whether MSL or MSL-7 has systemic toxicity. CBC was not changed by MSL or MSL-7 (Table 1).
Finally, in the present disclosure, the toxicity of the present enhancers were tested. The 8-week treatment of MSL or MSL-7 improved the metabolic profile, and reduced the level of liver enzymes (Table 1 below). […] In the major organ biopsy, there were found no side effects. Rather the fatty liver was improved (FIG. 14).
Table 1 indicates the hemogram and blood chemistry analyzed after administration of the present autophagy enhancer for 8 week in vivo. […] Other than that, there are no adverse changes were found.

[2] = tested on: ob/ob mice; test: Metabolic profile of ob/ob mice; format: in vivo
Experimental: FIG. 6A and FIG. 6B each indicates the fasting blood sugar and the body weights respectively from ob/ob mice which were treated with vehicle control or (50 mg/kg/2 days) for 8 weeks. FIG. 6C indicates the amount of feed intake from ob/ob mice which were treated with vehicle control or for 8 weeks. FIG. 6D and FIG. 6E each indicates the IPGTT results and AUC value measured after the 8 week administration. FIG. 6F and FIG. 6G indicates the ITT results and AUC value measured after the 8 week administration. FIG. 6H indicates the fasting blood sugar after the 8 week administration. FIG. 6I indicates the concentration of insulin after the 8 week administration. FIG. 6J indicate the result of HOMA-IR measured after the 8 week administration. FIG. 6K indicates the results the Insulinogenic index measured after the 8 week administration. Error bars, S.D. *, P<0.05; **, P<0.01; ***, P<0.001. Students t-test and one-way ANOVA.
FIG. 8A is the result of Hematoxylin-Eosin stained liver section from ob/ob mice treated with MSL compound or vehicle for 8 weeks. FIG. 8B is the result of measuring the concentration of TG using free glycerol reagent containing lipase in the lipid sample extracted using a mixture of chloroform/ethanol from the liver of ob/ob mice. FIG. 8C is the result of blood chemistry profile analyzed using chemical analyzer from serum sample obtained from ob/ob mice treated with MSL compound or vehicle for 8 weeks. FIG. 8D is the result of Hematoxylin-Eosin stained white adipose tissue section from ob/ob mice treated with MSL compound or vehicle for 8 weeks. FIG. 8E is the immuno-stained result of F4/80+ cells from white adipose tissue (left) and the quantification result of adipose cell F4/80+ CLS (right) indicated as a frequency of CLS (crown-like structures) in the white adipose tissue of the mice as described above. FIG. 8F is the result of quantifying the expression of WAT gene from the mice as described above using RT-PCR. Error bars, S.D. *, P<0.05; **, P<0.01; ***, P<0.001.
FIG. 11A is the result of fasting glucose concentration of ob/ob mice administered with vehicle control or MSL-7 (50 mg/kg/2 days) for 8 weeks. FIG. 11B is the body weight monitored of the mice of FIG. 11A. FIG. 11C is the result of experiments performed at 8 weeks after the administration of IPGTT (FIG. 1 IC) and ITT (FIG. 11D). FIG. 11E is the results of measuring blood chemistry profile of the ob/ob mice administered with vehicle control or MSL-7 compound for 8 weeks using chemical analyzer. Error bars, S.D. *, P<0.05; **, P<0.01; ***, P<0.001. Students t-test and one-way ANOVA. […]
We next studied whether MSL can activate autophagic flux in vivo. When we administered MSL after pretreatment with leupeptin (Ueno, T et al. (1991) Membrane markers of endoplasmic reticulum preserved in autophagic vacuolar membranes isolated from leupeptin-administered rat liver. J Biol Chem 266, 18995-18999), LC3-I to -II conversion was increased in the liver, supporting that MSL can increase autophagic flux in vivo. We next studied whether MSL administration can improve metabolic profile associated with obesity. We treated ob/ob mice with MSL at 50 mg/kg for 8 weeks.

Structure (SMILES)	level of liver enzymes [1]	CBC [1]	fatty liver (major organ biopsy) [1]	tissue histology of major organs (heart, kidney, muscle, spleen, lung, pancreas) [1]	ALB ([1]; 8 week)	ALP ([1]; 8 week)	ALT ([1]; 8 week)	AST ([1]; 8 week)	BUN ([1]; 8 week)	CA ([1]; 8 week)	CPK ([1]; 8 week)	CRE ([1]; 8 week)	DBIL ([1]; 8 week)	GGT ([1]; 8 week)	LDH ([1]; 8 week)	TCHO ([1]; 8 week)	TG ([1]; 8 week)	BASO ([1]; 8 week)	EOS ([1]; 8 week)	MONO ([1]; 8 week)	other results
COc1oc(-c2ccccc2Cl)nc1S(=O)(=O)c1ccccc1 [MSL-7, 2-(2-chlorophenyl)-5-methoxy-4-(phenylsulfonyl) oxazole]	reduced	not changed	improved	no significant alteration	1.1 ± 1.0 g/dL	278 ± 26.11^b U/L	146.9 ± 21.59^b U/L	153.8 ± 12.81^b U/L	20 ± 0.89	10.75 ± 0.32 mg/dL	241.3 ± 18.19 U/L	1 ± 0 mg/dL	<0.5 mg/dL	<5 U/L	810 ± 112.40^c U/L	136.9 ± 9.73 mg/dL	78.6 ± 22.50^b mg/dL	0.01 ± 0.01 K/μL	0.04 ± 0.01 K/μL	0.28 ± 0.05 K/μL	serum TG level and LDH level compared to MSL ([1]; 8 week): significantly lower; NEU ([1]; 8 week): 1.97 ± 0.16 K/μL; LYM ([1]; 8 week): 3.97 ± 0.38 K/μL; WBC ([1]; 8 week): 6.26 ± 0.52 K/μL; RBC ([1]; 8 week): 9.22 ± 0.12 M/μL; HGB ([1]; 8 week): 13.60 ± 0.19 g/dL; HCT ([1]; 8 week): 49.25 ± 0.78%; PLT ([1]; 8 week): 1031 ± 55 K/μL; body weight ([2]; 50 mg/kg, 8 weeks): without significant effect on body weight; non-fasting blood glucose level ([2]; 50 mg/kg, 8 weeks): significantly improved; glucose tolerance (IPGTT) ([2]; 8 weeks): significantly improved; insulin sensitivity (ITT) ([2]; 8 weeks): significantly improved
CSc1oc(-c2ccccc2)nc1S(=O)(=O)c1ccc(F)cc1 [MSL]	reduced	not changed	improved	no significant alteration	1.1 ± 0.10 g/dL	267 ± 35.02^b U/L	183.7 ± 35.71^b U/L	158.1 ± 16.39^c U/L	21.13 ± 1.38	11.13 ± 0.24 mg/dL	323.8 ± 29.68 U/L	0.75 ± 0.14 mg/dL	<0.5 mg/dL	<5 U/L	1428 ± 148.90^b U/L	150 ± 12.22 mg/dL	13.9 ± 16.41^a mg/dL	0.05 ± 0.01 K/μL	0.165 ± 0.06 K/μL	0.35 ± 0.109 K/μL	NEU ([1]; 8 week): 2.34 ± 0.51 K/μL; LYM ([1]; 8 week): 4.73 ± 0.95 K/μL; WBC ([1]; 8 week): 7.64 ± 1.54 K/μL; RBC ([1]; 8 week): 8.82 ± 0.54 M/μL; HGB ([1]; 8 week): 14.30 ± 0.56 g/dL; HCT ([1]; 8 week): 46.9 ± 2.4%; PLT ([1]; 8 week): 1081 ± 61 K/μL; Food intake ([2]; 50 mg/kg, 8 weeks): not affected; body weight ([2]; 50 mg/kg, 8 weeks): not affected; non-fasting blood glucose level ([2]; 50 mg/kg, 8 weeks): significantly decreased; AUC of IPGTT and ITT ([2]; 8 weeks): reduced; Fasting blood glucose levels ([2]; 8 weeks): significantly improved; HOMA-IR index ([2]; 8 weeks): slightly decreased; Serum ALT/ASL levels ([2]; 8 weeks): significantly reduced; glucose tolerance (IPGTT) ([2]; 8 weeks): significant improvement; insulin sensitivity (ITT) ([2]; 8 weeks): significant improvement; number of crown-like structures (CLSs) in WAT ([2]; 8 weeks): significantly decreased; accumulation of lipid droplets in the liver ([2]; 8 weeks, H&E): apparently reduced; expression of inflammatory markers (Tnfa, I-16, II-1β, F4/80), real-time RT-PCR ([2]; WAT, 8 weeks): significantly reduced; liver lipid content (Oil Red O staining) ([2]; data not shown): decreased

Source: US10881642B2, “Autophagy enhancer and use thereof” (Industry-Academic Cooperation Foundation, Yonsei University, priority 2016, dated 2021)
